Patent US20240024488A1, “COMPOUNDS AND USES THEREOF” (Foghorn Therapeutics Inc., priority 2020, published 2024)

Tests used:
HiBit-BRM fusion protein = target: T1, HiBit-BRM fusion protein (Homo sapiens, UniProt P51531); assay: HiBiT-BRM cell-based degradation assay (Nano-Glo HiBiT Lytic Detection, 24 h); details: HeLa cell line expressing HiBiT-BRM; for DC50: read-out: BRM HiBit Degradation IC50
T1 construct: expressed in transfected cells
In short: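 Percent BRM loss was derived from HiBiT luminescence relative to DMSO-treated cells and cells given 2 μM of a known BRM/BRG1 degrader. Treatment lasted 24 h in HiBiT-BRM HeLa cells, with a top final concentration of 30 μM.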

[1] = target: T2, HiBit-BRG1 fusion protein (Homo sapiens, UniProt P51532); assay: HiBiT-BRG1 cell-based degradation assay (Nano-Glo HiBiT Lytic Detection, 24 h); details: HeLa cell line expressing HiBit-BRG1 and LgBit; for Dmax: read-out: BRG1 HiBit Degradation Maximum (%); for DC50: read-out: BRMG1 HiBit Degradation IC50
T2 construct: expressed in transfected cells
In short: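 Seed 5000 HeLa HiBit-BRG1/LgBit cells per well; treat 24 h; equilibrate 15 min at room temperature; add Nano-Glo HiBiT lytic reagent, shake 10 min, read luminescence. Percent degradation is scaled between DMSO and 2 μM reference degrader wells.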

T1 sequence (P51531 whole entry, the tested form may be a part): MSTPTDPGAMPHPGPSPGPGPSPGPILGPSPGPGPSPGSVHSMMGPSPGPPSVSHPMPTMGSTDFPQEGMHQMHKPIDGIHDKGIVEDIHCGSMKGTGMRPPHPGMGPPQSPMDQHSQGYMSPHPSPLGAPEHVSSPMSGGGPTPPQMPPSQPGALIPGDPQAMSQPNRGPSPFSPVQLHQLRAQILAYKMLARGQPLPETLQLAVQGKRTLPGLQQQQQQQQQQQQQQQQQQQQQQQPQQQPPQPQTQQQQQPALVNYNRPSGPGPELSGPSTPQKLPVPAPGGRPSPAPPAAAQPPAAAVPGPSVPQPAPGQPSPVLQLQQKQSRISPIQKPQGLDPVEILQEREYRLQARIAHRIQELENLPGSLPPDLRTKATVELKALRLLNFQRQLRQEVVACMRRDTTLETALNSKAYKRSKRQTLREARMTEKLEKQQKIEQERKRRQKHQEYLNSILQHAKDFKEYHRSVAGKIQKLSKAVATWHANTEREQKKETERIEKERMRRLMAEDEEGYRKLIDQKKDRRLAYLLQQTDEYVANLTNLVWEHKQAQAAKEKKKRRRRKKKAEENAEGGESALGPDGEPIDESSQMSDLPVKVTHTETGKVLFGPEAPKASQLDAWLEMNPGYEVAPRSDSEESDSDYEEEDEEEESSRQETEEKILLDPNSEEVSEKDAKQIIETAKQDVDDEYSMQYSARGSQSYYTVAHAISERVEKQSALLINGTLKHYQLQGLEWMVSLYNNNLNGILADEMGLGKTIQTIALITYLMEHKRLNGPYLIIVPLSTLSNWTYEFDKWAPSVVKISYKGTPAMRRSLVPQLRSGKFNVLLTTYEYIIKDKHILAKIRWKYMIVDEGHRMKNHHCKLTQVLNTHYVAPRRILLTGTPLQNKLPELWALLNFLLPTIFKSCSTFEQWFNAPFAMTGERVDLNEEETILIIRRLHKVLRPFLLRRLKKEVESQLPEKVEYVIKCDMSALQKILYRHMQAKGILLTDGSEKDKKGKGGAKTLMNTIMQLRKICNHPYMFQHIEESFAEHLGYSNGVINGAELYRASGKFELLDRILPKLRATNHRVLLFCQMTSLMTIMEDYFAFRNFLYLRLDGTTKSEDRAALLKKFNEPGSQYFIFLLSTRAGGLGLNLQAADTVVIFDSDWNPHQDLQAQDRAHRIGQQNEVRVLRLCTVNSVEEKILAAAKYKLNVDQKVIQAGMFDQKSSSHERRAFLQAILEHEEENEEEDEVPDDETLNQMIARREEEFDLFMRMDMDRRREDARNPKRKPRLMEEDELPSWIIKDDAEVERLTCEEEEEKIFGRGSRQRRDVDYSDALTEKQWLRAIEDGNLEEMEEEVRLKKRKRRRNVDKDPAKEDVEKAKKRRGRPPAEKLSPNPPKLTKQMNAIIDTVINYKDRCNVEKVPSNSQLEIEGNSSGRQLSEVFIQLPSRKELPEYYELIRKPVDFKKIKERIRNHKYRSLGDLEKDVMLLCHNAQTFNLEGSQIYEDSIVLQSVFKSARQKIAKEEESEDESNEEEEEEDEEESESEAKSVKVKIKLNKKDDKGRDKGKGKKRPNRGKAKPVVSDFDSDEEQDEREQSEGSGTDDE
T2 sequence (P51532 whole entry, the tested form may be a part): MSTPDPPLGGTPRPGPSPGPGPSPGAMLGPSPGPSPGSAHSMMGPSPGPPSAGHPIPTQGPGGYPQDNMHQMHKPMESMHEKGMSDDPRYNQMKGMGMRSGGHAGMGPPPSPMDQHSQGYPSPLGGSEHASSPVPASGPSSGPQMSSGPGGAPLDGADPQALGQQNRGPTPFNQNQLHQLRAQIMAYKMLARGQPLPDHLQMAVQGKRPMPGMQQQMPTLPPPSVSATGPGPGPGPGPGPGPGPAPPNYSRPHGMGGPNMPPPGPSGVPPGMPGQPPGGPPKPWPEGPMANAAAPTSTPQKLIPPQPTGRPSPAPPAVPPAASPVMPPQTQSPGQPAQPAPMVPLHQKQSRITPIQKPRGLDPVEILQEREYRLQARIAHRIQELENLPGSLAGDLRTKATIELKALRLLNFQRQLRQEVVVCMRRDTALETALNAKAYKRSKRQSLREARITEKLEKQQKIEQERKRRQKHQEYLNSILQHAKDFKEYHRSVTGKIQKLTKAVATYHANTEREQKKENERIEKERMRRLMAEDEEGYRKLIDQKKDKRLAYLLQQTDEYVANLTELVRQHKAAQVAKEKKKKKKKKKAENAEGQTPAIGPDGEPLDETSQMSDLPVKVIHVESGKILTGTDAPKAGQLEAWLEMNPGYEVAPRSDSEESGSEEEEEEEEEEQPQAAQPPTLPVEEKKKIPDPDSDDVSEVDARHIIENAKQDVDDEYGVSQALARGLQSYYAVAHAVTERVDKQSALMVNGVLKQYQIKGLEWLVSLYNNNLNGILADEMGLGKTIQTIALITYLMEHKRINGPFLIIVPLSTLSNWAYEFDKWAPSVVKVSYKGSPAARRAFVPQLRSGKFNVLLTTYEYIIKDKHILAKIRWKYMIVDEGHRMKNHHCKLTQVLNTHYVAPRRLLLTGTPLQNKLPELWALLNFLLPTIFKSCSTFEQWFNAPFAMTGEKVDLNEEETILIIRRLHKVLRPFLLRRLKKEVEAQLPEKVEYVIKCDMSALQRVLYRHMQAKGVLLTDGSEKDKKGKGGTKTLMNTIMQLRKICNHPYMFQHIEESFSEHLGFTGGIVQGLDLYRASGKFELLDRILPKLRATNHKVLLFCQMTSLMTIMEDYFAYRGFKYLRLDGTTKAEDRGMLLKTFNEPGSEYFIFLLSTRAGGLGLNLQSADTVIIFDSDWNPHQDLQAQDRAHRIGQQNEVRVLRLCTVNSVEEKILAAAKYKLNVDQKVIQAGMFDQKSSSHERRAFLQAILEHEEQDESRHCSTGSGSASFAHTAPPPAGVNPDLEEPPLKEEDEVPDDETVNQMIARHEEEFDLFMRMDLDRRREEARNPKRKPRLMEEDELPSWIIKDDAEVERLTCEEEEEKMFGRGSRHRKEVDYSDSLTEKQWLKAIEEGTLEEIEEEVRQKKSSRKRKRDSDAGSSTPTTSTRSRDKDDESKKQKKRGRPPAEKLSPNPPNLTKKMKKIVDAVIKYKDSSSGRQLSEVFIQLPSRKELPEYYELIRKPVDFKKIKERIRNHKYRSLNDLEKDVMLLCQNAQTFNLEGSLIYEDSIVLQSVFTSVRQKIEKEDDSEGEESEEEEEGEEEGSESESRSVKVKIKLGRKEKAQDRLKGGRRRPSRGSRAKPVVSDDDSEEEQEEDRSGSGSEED

Row | Compound | Dmax [1] [%] | DC50 (HiBit-BRM fusion protein) [nM] | DC50 [1] [nM] | BRM HiBit Degradation Maximum (%) (HiBit-BRM fusion protein)
1 | Cc1ncsc1-c1ccc([C@H](C)NC(=O)[C@@H]2C[C@@H](O)CN2C(=O)[C@@H](c2cc(OCCN3CC(c4[nH]c5nnc(-c6ccccc6O)cc5c4C4CC4)C3)no2)C(C)C)cc1 (racemic) [Compound 164, (2S,4R)-1-((R)-2-(3-(2-(3-(5-cyclopropyl-3-(2-hydroxyphenyl)-7H-pyrrolo[2,3-c]pyridazin-6-yl)azetidin-1-yl)ethoxy)isoxazol-5-yl)-3-methylbutanoyl)-4-hydroxy-N-((S)-1-(4-(4-methylthiazol-5-yl)phenyl)ethyl)pyrrolidine-2-carboxamide] | > 75 | > 10 | > 100 | A (“A” indicates maximum degradation ≥ 75%)
2 | Cc1ncsc1-c1ccc([C@H](C)NC(=O)[C@@H]2C[C@@H](O)CN2C(=O)[C@@H](c2cc(OCCN3CC4(CNc5nnc(-c6ccccc6O)cc54)C3)no2)C(C)C)cc1 (racemic) [Compound 177, (2S,4R)-4-hydroxy-1-((R)-2-(3-(2-(3′-(2-hydroxyphenyl)-6′,7′-dihydrospiro[azetidine-3,5′-pyrrolo[2,3-c]pyridazin]-1-yl)ethoxy)isoxazol-5-yl)-3-methylbutanoyl)-N-((S)-1-(4-(4-methylthiazol-5-yl)phenyl)ethyl)pyrrolidine-2-carboxamide] | < 50 | > 1000 | – | B (“B” indicates maximum degradation ≥ 50%)
3 | Cc1ncsc1-c1ccc([C@H](C)NC(=O)[C@@H]2C[C@@H](O)CN2C(=O)[C@@H](c2cc(N3CCC(N4CCc5[nH]c6nnc(-c7ccccc7O)cc6c5C4)CC3)no2)C(C)C)cc1 (racemic) [Compound 183, (2S,4R)-4-hydroxy-1-((R)-2-(3-(4-(3-(2-hydroxyphenyl)-5,7,8,9-tetrahydro-6H-pyrido[3′,4′:4,5]pyrrolo[2,3-c]pyridazin-6-yl)piperidin-1-yl)isoxazol-5-yl)-3-methylbutanoyl)-N-((S)-1-(4-(4-methylthiazol-5-yl)phenyl)ethyl)pyrrolidine-2-carboxamide] | < 50 | > 100 | – | A (“A” indicates maximum degradation ≥ 75%)
4 | Cc1ncsc1-c1ccc([C@H](C)NC(=O)[C@@H]2C[C@@H](O)CN2C(=O)[C@@H](c2cc(OCCN3CC(COc4c[nH]c5nnc(-c6ccccc6O)cc45)C3)no2)C(C)C)cc1 (racemic) [Compound 185, (2S,4R)-4-hydroxy-1-[(2R)-2-(3-{2-[3-{{[3-(2-hydroxyphenyl)-7H-pyrrolo[2,3-c]pyridazin-5-yl]oxy}methyl)azetidin-1-yl]ethoxy}-1,2-oxazol-5-yl)-3-methylbutanoyl]-N-[(1S)-1-[4-(4-methyl-1,3-thiazol-5-yl)phenyl]ethyl]pyrrolidine-2-carboxamide] | > 75 | > 100 | > 1000 | A (“A” indicates maximum degradation ≥ 75%)
5 | Cc1ncsc1-c1ccc([C@H](C)NC(=O)[C@@H]2C[C@@H](O)CN2C(=O)[C@@H](c2cc(OCCN3CC4(Cc5cc(-c6ccccc6O)nnc5N4)C3)no2)C(C)C)cc1 (racemic) [Compound 186, (2S,4R)-4-hydroxy-1-((R)-2-(3-(2-(3′-(2-hydroxyphenyl)-5′,7′-dihydrospiro[azetidine-3,6′-pyrrolo[2,3-c]pyridazin]-1-yl)ethoxy)isoxazol-5-yl)-3-methylbutanoyl)-N-((S)-1-(4-(4-methylthiazol-5-yl)phenyl)ethyl)pyrrolidine-2-carboxamide] | > 75 | > 10 | > 100 | A (“A” indicates maximum degradation ≥ 75%)
6 | Cc1ncsc1-c1ccc(CNC(=O)[C@@H]2C[C@@H](O)CN2C(=O)[C@@H](NC(=O)CCCCCNC(=O)[C@H]2CCc3[nH]c4nnc(-c5ccccc5O)cc4c3C2)C(C)(C)C)cc1 (racemic) [Compound 189, (S)-N-(6-(((S)-1-((2S,4R)-4-hydroxy-2-((4-(4-methylthiazol-5-yl)benzyl)carbamoyl)pyrrolidin-1-yl)-3,3-dimethyl-1-oxobutan-2-yl)amino)-6-oxohexyl)-3-(2-hydroxyphenyl)-6,7,8,9-tetrahydro-5H-pyridazino[3,4-b]indole-6-carboxamide] | < 50 | – | – | C (“C” indicates maximum degradation < 50%)
7 | Cc1ncsc1-c1ccc([C@H](C)NC(=O)[C@@H]2C[C@@H](O)CN2C(=O)[C@@H](c2cc(N3CCC(CN4CCc5[nH]c6nnc(-c7ccccc7O)cc6c5C4)CC3)no2)C(C)C)cc1 (racemic) [Compound 193, (2S,4R)-4-hydroxy-1-((R)-2-(3-(4-((3-(2-hydroxyphenyl)-5,7,8,9-tetrahydro-6H-pyrido [3′,4′:4,5]pyrrolo[2,3-c]pyridazin-6-yl)methyl)piperidin-1-yl)isoxazol-5-yl)-3-methylbutanoyl)-N-((S)-1-(4-(4-methylthiazol-5-yl)phenyl)ethyl)pyrrolidine-2-carboxamide] | > 50 | > 10 | > 100 | A (“A” indicates maximum degradation ≥ 75%)

Second part, led by results:

Row | Dmax [1] [%] | DC50 (HiBit-BRM fusion protein) [nM] | DC50 [1] [nM] | Compound | BRM HiBit Degradation Maximum (%) (HiBit-BRM fusion protein)
8 | < 50 | – | – | Cc1ncsc1-c1ccc([C@H](C)NC(=O)[C@@H]2C[C@@H](O)CN2C(=O)[C@@H](c2cc(OCCN3CC(c4cc5cc(-c6ccccc6O)nnc5n4C(F)F)C3)no2)C(C)C)cc1 (racemic) [Compound 148, (2S,4R)-1-[(2R)-2-[3-(2-{3-[7-(difluoromethyl)-3-(2-hydroxyphenyl)pyrrolo[2,3-c]pyridazin-6-yl]azetidin-1-yl}ethoxy)-1,2-oxazol-5-yl]-3-methylbutanoyl]-4-hydroxy-N-[(1S)-1-[4-(4-methyl-1,3-thiazol-5-yl)phenyl]ethyl]pyrrolidine-2-carboxamide] | C (“C” indicates maximum degradation < 50%)
9 | < 50 | – | – | Cc1ncsc1-c1ccc([C@H](C)NC(=O)[C@@H]2C[C@@H](O)CN2C(=O)[C@H](c2cc(N(C)CCN3CCc4[nH]c5nnc(-c6ccccc6O)cc5c4C3)no2)C(C)C)cc1 (racemic) [Compound 149, (2S,4R)-4-hydroxy-1-((S)-2-(3-((2-(3-(2-hydroxyphenyl)-5,7,8,9-tetrahydro-6H-pyrido[3′,4′:4,5]pyrrolo[2,3-c]pyridazin-6-yl)ethyl)(methyl)amino)isoxazol-5-yl)-3-methylbutanoyl)-N-((S)-1-(4-(4-methylthiazol-5-yl)phenyl)ethyl)pyrrolidine-2-carboxamide] | C (“C” indicates maximum degradation < 50%)
10 | < 50 | > 100 | – | Cc1ncsc1-c1ccc([C@H](C)NC(=O)[C@@H]2C[C@@H](O)CN2C(=O)[C@@H](c2cc(OCCN3CCC34CC(c3c[nH]c5nnc(-c6ccccc6O)cc35)C4)no2)C(C)C)cc1 (mixture of isomers) [Compound 151, (2S,4R)-4-hydroxy-1-((R)-2-(3-(2-(6-(3-(2-hydroxyphenyl)-7H-pyrrolo[2,3-c]pyridazin-5-yl)-1-azaspiro[3.3]heptan-1-yl)ethoxy)isoxazol-5-yl)-3-methylbutanoyl)-N-((S)-1-(4-(4-methylthiazol-5-yl)phenyl)ethyl)pyrrolidine-2-carboxamide] | A (“A” indicates maximum degradation ≥ 75%)
11 | > 75 | > 10 | > 100 | Cc1ncsc1-c1ccc([C@H](C)NC(=O)[C@@H]2C[C@@H](O)CN2C(=O)[C@@H](c2cc(OCCN3CCC34CC(c3cc5cc(-c6ccccc6O)nnc5[nH]3)C4)no2)C(C)C)cc1 (mixture of isomers) [Compound 161, (2S,4R)-4-hydroxy-1-((R)-2-(3-(2-(6-(3-(2-hydroxyphenyl)-7H-pyrrolo[2,3-c]pyridazin-6-yl)-1-azaspiro[3.3]heptan-1-yl)ethoxy)isoxazol-5-yl)-3-methylbutanoyl)-N-((S)-1-(4-(4-methylthiazol-5-yl)phenyl)ethyl)pyrrolidine-2-carboxamide] | A (“A” indicates maximum degradation ≥ 75%)
12 | < 50 | – | – | Cc1ncsc1-c1ccc([C@H](C)NC(=O)[C@@H]2C[C@@H](O)CN2C(=O)[C@@H](c2cc(N(C)CCN3CCc4[nH]c5nnc(-c6ccccc6O)cc5c4C3)no2)C(C)C)cc1 (racemic) [Compound 182, (2S,4R)-4-hydroxy-1-((R)-2-(3-((2-(3-(2-hydroxyphenyl)-5,7,8,9-tetrahydro-6H-pyrido[3′,4′:4,5]pyrrolo[2,3-c]pyridazin-6-yl)ethyl)(methyl)amino)isoxazol-5-yl)-3-methylbutanoyl)-N-((S)-1-(4-(4-methylthiazol-5-yl)phenyl)ethyl)pyrrolidine-2-carboxamide] | C (“C” indicates maximum degradation < 50%)
13 | < 50 | > 10 | – | Cc1ncsc1-c1ccc([C@H](C)NC(=O)[C@@H]2C[C@@H](O)CN2C(=O)[C@@H](c2cc(N3CCC(C(=O)N4CCc5[nH]c6nnc(-c7ccccc7O)cc6c5C4)CC3)no2)C(C)C)cc1 (racemic) [Compound 187, (2S,4R)-4-hydroxy-1-((R)-2-(3-(4-(3-(2-hydroxyphenyl)-6,7,8,9-tetrahydro-5H-pyrido[3′,4′:4,5]pyrrolo[2,3-c]pyridazine-6-carbonyl)piperidin-1-yl)isoxazol-5-yl)-3-methylbutanoyl)-N-((S)-1-(4-(4-methylthiazol-5-yl)phenyl)ethyl)pyrrolidine-2-carboxamide] | A (“A” indicates maximum degradation ≥ 75%)
